The values that follow come from PMC3867503 (PLoS ONE, 2013).

In general, IC50 refers to the point on the concentration scale where inhibition reaches its midpoint. One may read the half-life as the time needed for the level to fall by half in the phase considered.

For data set [1], the system named is HUVECs. The experiment in a line: Tubulogenesis assay on growth-factor reduced Matrigel. The data set is classed as cell-based, human. How it is done:
Growth factor reduced Matrigel was thawed overnight on ice at 4°C. 40 μl Matrigel was added to each well of a 96-well plate and incubated for 30 mins to polymerize. 10,000 cells in 100 μl EGM-2 complete medium with either inhibitors or vehicle control (0.2% DMSO) were added to each well. Plates were incubated for 24 hours at 37°C, 5% CO2 and then photographed at 5X magnification. Tube length was measured using the NeuronJ plugin [21] for the NIH ImageJ software.
Primary endothelial cells (ECs) on basement membrane rapidly attach, align themselves and form capillary-like tubules with lumens and tight cell-cell contacts. […] To better understand the stage in matrigel tube-formation affected by 6OH-BBR we followed cells plated on growth-factor reduced matrigel and treated with either vehicle or 6OH-BBR (Figure 5C). Differences become apparent within the first two hours and are clearly visible at the 6-hour time-point. The ECs are much less organized in the presence of 6OH-BBR.
(A) Representative phase-contrast images of HUVECs plated on growth-factor reduced Matrigel in the presence of the indicated doses of test compounds, photographed 16 hours after plating. (B) Quantitation of the number of tube-like structures formed by HUVECs in the presence of test compounds. The number of tubes was measured using NeuronJ. […]

In data set [2] the target is T1, recombinant human EYA3 (Homo sapiens, UniProt Q99504).
T1 construct: a splice variant of Q99504 corresponding to isoform 2 and missing residues 1 - 126; made in house
T1 sequence (Q99504 1-447 isoform Q99504-2): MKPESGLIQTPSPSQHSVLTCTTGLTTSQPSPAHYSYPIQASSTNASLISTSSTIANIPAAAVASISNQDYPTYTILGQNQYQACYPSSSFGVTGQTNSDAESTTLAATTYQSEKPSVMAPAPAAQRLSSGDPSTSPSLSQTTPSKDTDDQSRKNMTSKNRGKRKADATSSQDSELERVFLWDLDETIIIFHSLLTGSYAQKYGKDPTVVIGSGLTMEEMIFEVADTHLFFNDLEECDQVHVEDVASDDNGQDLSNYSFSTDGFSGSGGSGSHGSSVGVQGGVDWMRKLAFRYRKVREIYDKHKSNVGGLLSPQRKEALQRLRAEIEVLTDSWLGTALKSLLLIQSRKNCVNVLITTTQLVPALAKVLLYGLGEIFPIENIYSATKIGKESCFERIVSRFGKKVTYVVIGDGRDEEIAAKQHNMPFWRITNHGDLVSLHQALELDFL
The data set is described as follows: pNPP hydrolysis by EYA3 (tyrosine phosphatase enzyme assay). In kind it is biochemical. As to conditions: for IC50: recombinant human EYA3, substrate pNPP, read-out: IC50 (95% confidence intervals), pNPP hydrolysis by EYA3. The protocol: Purification of recombinant EYA3 has been reported previously. Assays using the colorimetric substrate p-nitrophenylphosphate were conducted as previously reported.
Enzymatic assays were conducted using recombinant human EYA3 (a splice variant of Q99504 corresponding to isoform 2 and missing residues 1 - 126) purified as described. The chromogenic substrate para-nitrophenylphosphate (pNPP) was used to measure catalytic activity of EYA3. […] To assay potential EYA inhibitors, the compounds were pre-incubated with EYA3, pNPP added, and the formation of the p-nitrophenolate product measured. […] In addition, an ex vivo examination of sprouting angiogenesis was conducted using the aortic ring assay.

Data set [3] has as its system HUVECs. The experiment in a line: HUVEC proliferation / cell viability assay (WST-8). The data set is classed as cell-based, human. As to conditions: for effect on cell viability / proliferation: 72 hours. The protocol: 75% confluent HUVECs (<passage 8) were washed with PBS and trypsinized, deactivated with 10% FBS, spun down and counted. 1000 cells/well were seeded in triplicate in 100 μl EGM-2 complete medium either with inhibitors (in 0.2% DMSO) or vehicle alone (0.2% DMSO). After 0 hrs, 24 hrs, 48 hrs, 72 hrs of incubation at 37°C in […] 10 μl WST-8 was added to each well and incubated for 2 hours in the dark, at 37°C, […]. Absorption was read at 450 nm. Fold change was calculated as the ratio of the OD450 at the experimental time point and at the start of the experiment (0 hours).
A cell viability assay was conducted over 3 days of exposure to the test compounds in order to assess both the possibility of immediate cellular toxicity as well as any effect on cell proliferation. HUVECs were seeded and equilibrated for 24 hours before addition of the test compounds. Cellular metabolic activity was measured at defined time-points using the tetrazolium dye WST-8 to quantify NAD(P)H-dependent cellular oxidoreductase enzyme activity.
Figure 2 Proliferation of HUVECs in the presence of 7.5 μM test compounds. Cell viability was measured at 72 hours post-seeding. Asterisk represents significant differences between groups (*** P<0.001, * P<0.05).

The conditions of data set [4]: cited from earlier work; for half-life: as previously reported; for maximal plasma concentration: single oral dose of 100 mg.
For data set [5], the system named is HUVECs. The experiment in a line: Scratch wound healing (cell migration) assay. The data set is classed as cell-based, human. How it is done: 10^5 HUVECs/well were seeded on 24-well plates and cultured until they reached confluency in EGM-2. The monolayers were then scratch-wounded using a 200 μl pipette tip, washed with PBS, and incubated with EGM-2 complete medium and either EYA Inhibitors or vehicle control (0.2% DMSO). Wounds were photographed immediately upon insult, and at various time-points following wounding using a phase-contrast microscope. The number of cells that migrated into the cleared area was counted using the Cell Counter function of ImageJ [20].
The effect of the test compounds on cell migration was assessed using a scratch wound healing assay and HUVEC cells. Cells were plated and grown to confluency. Scratch wounds were made using a sterile pipette tip, the medium changed to remove any cellular debris, and fresh medium with either vehicle or test compound was introduced. The number of cells that migrated into the cleared space was counted 22 hours later. […] Previous experiments had shown a role for EYA3 in trans-well migration of HUVECs. […] Lentiviral shRNA targeting EYA3 in HUVECs led to greater than 80% reduction in EYA3 protein levels (Figure 4A).
Figure 3 Lateral migration of HUVECs in the presence of test compounds. […] (B) Number of cells that migrate into the wounded area was counted using the Cell Counter functionality of ImageJ. […]

Data set [6] deals with aortic ring explants from C57BL/6 mice. The data set is described as follows: Aortic ring sprouting assay (ex vivo). As to conditions: mouse aortic rings in collagen, initially 7.5 μM, 10-day treatment. How it is done:
The preparation of rat collagen and the aortic ring assay were carried out as previously described. Briefly, aortic ring explants were obtained from C57BL/6 mice aged 4 to 6 weeks and cultured at 37°C in a humidified incubator under a 5% CO2 atmosphere in serum-free EBM. Within 30 minutes of dissection the rings were placed in a 3D collagen matrix supported by a UV-sterilized nylon mesh ring with inner and outer diameters of 3 mm and 5.6 mm, respectively. The matrix was prepared by mixing 8 parts of collagen solution, 1 part of 10x M199 and 1 part of 23.4mg/ml NaHCO3. After another 30 min incubation at 37°C, the assembly was transferred into a well of 96-well plate filled with 150 μl of culture medium; either control medium consisting of 0.1% DMSO in EBM, 2.5% FBS, penicillin/streptomycin and 20ng/ml VEGF165 or the test inhibitor dissolved in the control medium. Each compound was applied over a 10-day period with medium changes every two days. […]
This assay allows for analysis of cell proliferation, migration, tube formation, micro-vessel branching, and perivascular recruitment. […] All the test compounds were initially assayed at 7.5 μM and the number of branch-points counted. […]
Figure 6 Effect of test compounds on aortic ring sprouting. […] (B) Quantitation of the number of sprouts per ring with each bar representing at least 4 rings. *** P<0.001, ** P<0.01, * P<0.05, ns not significant).

For data set [7], the system named is HUVECs. To be noted: cited from earlier work.
The target of data set [8] is T1, recombinant human EYA3. As to conditions: recombinant EYA3, substrate pNPP; reported previously; read-out: IC50 (95% confidence intervals), pNPP hydrolysis by EYA3; cited from earlier work.
On the set-up of data set [9]: method as in PMID 22398967. As to conditions: cited from earlier work.

Where “and” joins values, the source holds several entries; their conditions need not be identical. Equal values may be shown once. Entries after “also recorded” stand apart in the source; their conditions may differ. Read-outs that look alike come from different tables or passages of the source.

Regarding `CCc1oc2cc(O)ccc2c1C(=O)c1cc(Br)c(O)c(Br)c1` [Compound 6OH-BBR, 6-hydroxybenzbromarone], the “inhibition of tube formation (in words)” value in data set [1] is “much stronger inhibitory effect than BZ”. In [2] (EYA3 inhibition in vitro), the “IC50 relative to BBR” value is reported as “over twice”. Further, the IC50 in [2] came out at 21.5 µM. For the same compound, in data set [3] (7.5 μM test compound, 72 hours post-seeding), the “reduction in cell proliferation” value is given as “over 50%”. Also, in [3] (24 hours), the “effect on cell proliferation at the 24-hour time-point” value is “attenuated cell proliferation”. For the same compound, in [4], the half-life is 30 h. The “reduction of cell migration” value in data set [5] (7.5 μM test compound, 22 hours after wounding) was approximately 80%. The “attenuation of aortic ring sprouting (in words)” value in [6] is on record as “most potent inhibitor”.

In the case of `CCc1oc2ccccc2c1C(=O)c1cc(Br)c(O)c(Br)c1` [BBR, Benzbromarone], the “effect on cell viability / proliferation” value in [3] (7.5 μM test compound) is recorded as “reduced cell viability; also recorded: significant inhibition of cell proliferation”. Also, the half-life in data set [4] was 3 h. For the same compound, the maximal plasma concentration was 3.9 μg/ml and ~ 9.2 μM in data set [4] (rapid eliminators); 9.17 μg/ml and ~ 21.8 μM in data set [4] (slow eliminator). Moreover, the “effect on proliferation of HUVECs in the first 24 hours” value in data set [7] is on record as “does not influence proliferation”.

For the compound `Cc1oc2ccccc2c1C(=O)c1ccc(O)c(I)c1` [DIBZI], the IC50 in [2] was determined as 20.5 µM. For the same compound, the “effect on cell viability / proliferation” value in data set [3] (7.5 μM test compound) is “small but significant positive effect on cell proliferation”.

With `Cc1oc2ccccc2c1C(=O)c1cc(I)c(O)c(I)c1` [BZI], the IC50 in [2] amounted to 8.9 µM.

Consider `CCc1oc2ccc(O)cc2c1C(=O)c1cc(Br)c(O)c(Br)c1` [Compound 5OH-BBR, 5-hydroxy benzbromaorne], for which, in [2], the IC50 turned out to be 49.4 µM.

As for `CCc1oc2ccc(O)cc2c1C(=O)c1ccc(O)cc1` [Compound 5OH-BZ], the IC50 in [2] was more than 150 µM.

Regarding `CC(O)CCc1oc2ccccc2c1C(=O)c1cc(I)c(O)c(I)c1` (centres unmarked) [OH-ODAA], the IC50 in data set [2] was determined as 16.4 µM.

As for `CCc1oc2ccccc2c1C(=O)c1ccc(O)cc1` [BZ, Benzarone, reference compound], the “effect on cell viability / proliferation” value in [3] (7.5 μM test compound) is listed as “reduced cell viability; also recorded: significant inhibition of cell proliferation”. Also, the half-inhibitory concentration (IC50) in [8] was 17.5 µM. The “effect on proliferation of HUVECs in the first 24 hours” value in data set [7] was “does not influence proliferation”.

In the case of `CC(O)c1oc2ccccc2c1C(=O)c1cc(Br)c(O)c(Br)c1` (centres unmarked) [1’OH-BBR, 1’-hydroxybenzbromarone], the IC50 in data set [2] was 52.5 µM.

As to `CCCCc1oc2ccccc2c1C(=O)c1cc(I)c(O)c(I)c1` [ODAA], in data set [1], the “inhibition of tube formation (in words)” value was “relatively weak inhibitor”. Further, the IC50 in [2] amounted to 3.1 µM. For the same compound, the “effect on cell viability / proliferation” value in data set [3] (7.5 μM test compound) was “small but significant positive effect on cell proliferation”. Also, the “fraction bound to plasma protein” value in [9] is ~ 99.9%. In addition, the “inhibition of cell migration (in words)” value in [5] is on record as “relatively weak inhibitor”.

Turning to `Cc1oc2ccccc2c1C(=O)c1ccc(O)cc1` [DMBZ], the IC50 in [2] is 135 µM.
